Test results: patent US6497862B2, “Composition for inhibiting body odor and uses thereof” (Kabushiki Kaisha Hayashibara, priority 2000, dated 2002)

Key:
[1] = Panel test of body-odor-like smell (KAREI-SHU), 9-hexadecanoic acid heated (Experiment 3); set-up: key: +++: the same or higher level of odor; ++: slightly lower level of odor; +: clearly lower level of odor than that of the control system; conditions: compared with control system
Text: (§1) Upon the HSG samples, the level of a body-odor-like smell was examined on a panel test consisting of six professional panels; the panels directly smelled the samples from each glass vial and judged the level of the smells for each samples with test saccharides based on the following four ranks, i.e., the same or higher level of odor (+++), slightly lower level of odor (++), clearly lower level of odor (+), and odorless (−) as compared with the control system. Summing up the data from the panels, the samples tested were totally evaluated.
(§2) The content of 2-nonenal in HSG was measured by GC similarly as in Experiment 1 except that 9-hexadecanoic acid or palmitoleic acid was used as a fatty acid and 2-nonenal, a volatile aldehyde, was used as a standard substance. The level of body-odor-like smell, particularly with respect to KAREI-SHU, in each sample was evaluated by panel test in accordance with the method in Experiment 1.

[2] = Formation of 2-nonenal from 9-hexadecanoic acid at the temperature of human body, GC of HSG (Experiment 6); conditions: 37° C., 9,000 lux
Procedure: (§3) One hundred milligrams of 9-hexadecanoic acid as a fatty acid, 500 mg of a cellulose powder, and 1.25 ml of 0.12 M phosphate buffer (pH 6.0) were placed in a 20-ml glass vial. To the glass vial was added 100 mg of either of trehalose, maltitol and sucrose as a test saccharide, followed by sealing with a butyl rubber cap for use as a test system. As a control system, there provided a glass vial with no test saccharide that differed from the test systems only in this point. In both the test- and control-systems, they were respectively provided in doublet.
These glass vials were allowed to stand in a 37° C.-thermostatic-bath under the irradiation of 9,000 lux by a fluorescent lamp. At 3-days of standing, one of each pair of the vials containing the same composition, and 7-days of standing, the other vial of each resting pair of the vials were transferred to a heat block, which had been preheated to 80° C. and then kept therein for five minutes, followed by analyzing the content of 2-nonenal in HSG in each vial by GC similarly as in Experiment 2. After the collection of HSG, the smell from glass vials was evaluated by panel test in accordance with the method in Experiment 2.

[3] = Panel test of smell, 9-hexadecanoic acid at 37° C. (Experiment 6); set-up: key: +++: the same or higher level of odor; ++: slightly lower level of odor; +: clearly lower level of odor than that of the control system; −: odorless; conditions: 3-days of standing, 37° C., 9,000 lux
Text: as §1, §3
These glass vials were allowed to stand in a 37° C.-thermostatic-bath under the irradiation of 9,000 lux by a fluorescent lamp. […] After the collection of HSG, the smell from glass vials was evaluated by panel test in accordance with the method in Experiment 2.

[4] = Panel test of body-odor-like smell (KAREI-SHU), 9-hexadecanoic acid heated (Experiment 3); set-up: key: +++: the same or higher level of odor; ++: slightly lower level of odor; +: clearly lower level of odor than the control system; conditions: compared with control system
Text: as §1, §2

healthy volunteer = assay: Test on volunteer: volatile aldehydes collected from worn underwear (Experiment 7); assay type: in vivo, human
Procedure: The influence of saccharides on the formation of body odor from living bodies by applying trehalose to a healthy volunteer, under the following schedule: After soaking a towel in a 2% (w/w) aqueous trehalose solution, which had been boiled for five minutes and then cooled to about 40° C., at 10:30 a.m. on the day of starting a test, the volunteer as in a test system was allowed to wipe their whole body with the towel squeezed roughly to apply trehalose on the body surface, and made them to spend their daily life as usual after the drying of the applied aqueous trehalose solution. Thereafter, they were made to take a bath at 9 p.m. as usual and allowed to sufficiently wash their whole body including their hair. Just after bathing, a fresh preparation of aqueous trehalose solution was applied on the body surface similarly as above, then after drying the aqueous trehalose solution, they were made to wear an underwear and allowed to spend their daily life. At 5:30 p.m. on the next day after the initiation of the test, their worn underwear was collected, and tested for the presence and the content of volatile aldehydes in the underwear by the following procedures. As a control, on other day, the volunteer was allowed to wear a similar underwear as used in the test system according to the above test system except for replacing the aqueous trehalose solution with water, and then made them to spend their daily life, followed by collecting their underwear and analyzing them by the following procedures similarly as above.
As shown schematically in FIG. 1, an underwear 5 worn by the volunteer in each system was sealed after placed in a sealing vessel 1 immediately after the collection, and the gas in the sealing vessel 1 was pumped by an air pump 3 into a cartridge 4, “Superclean LpDNPH Cartridge”, with a lot No. LpDNPH S10L commercialized by Supelco Inc., Tokyo, Japan, to collect volatile aldehydes through a pipe 2 at ambient temperature of about 20° C., while the gas was continuously circulated through the sealed vessel 1 through the pipe 2 for one hour to collect in the cartridge 4 volatile aldehydes, as DNPH (dinitrophenylhydrazine), contained in the underwear 5. Thereafter, the cartridge 4 was removed and received two milliliters of acetonitrile by passing therethrough, followed by collecting an eluate from the cartridge 4. The collected eluate was analyzed on GC as follows.
“GAS CHROMATOGRAPH GC-14B”, as a GC apparatus produced by Shimadzu Corporation, Tokyo, Japan; and “TC-Wax CAPILLARY COLUMN”, a column for analysis, having 0.53 mm in inner diameter, 25 m in length, and 0.5 μm in thickness, produced by GL Sciences, Inc., Tokyo, Japan, were used. Helium gas was used as a carrier gas at a flow rate of 1 ml/min, and the temperature for a sample injection part was set to 240° C., while keeping a column thermostatic bath temperature at 50° C. for five minutes and then increasing the temperature up to 200° C. at a rate of 5° C./min. Using two microliters of an analysis sample as an injection volume, 1/30 volume of the injected sample was analyzed (split 1:30) by passing through the column for analysis while controlling the flow rate of the carrier gas at the sample injection part and using a hydrogen flame ionization detector for detection. As standard specimens, DNPH derivatives for each 2-nonenal, 2-octenal, hexanal, and nonanal were used and separately analyzed on GC under the conditions shown above. Based on the gas chromatograms from the above analyses, the content (μg) of respective 2-nonenal, 2-octenal. hexanal, and nonanal, collected form the underwears in the test system and control, was determined.

[5] = 3-days of standing, control 0.03
[6] = 7-days of standing, control 16.8

SMILES | Evaluation of panel test [1] | Content of 2-nonenal in HSG [2, 5] [µg/mL] | Content of 2-nonenal in HSG [2, 6] [µg/mL] | Evaluation of panel test [3] | Evaluation of panel test [4] | Content of volatile aldehydes collected from underwear, 2-Nonenal (healthy volunteer; 2% (w/w) aqueous trehalose solution applied on the body surface, control 7.05) [µg] | Content of volatile aldehydes collected from underwear, Hexanal (healthy volunteer; 2% (w/w) aqueous trehalose solution on the body surface, control 5.39, * means no detection) | Content of volatile aldehydes collected from underwear, 2-Octenal (healthy volunteer; 2% (w/w) aqueous trehalose solution on the body surface, control 8.61, * means no detection) | Content of volatile aldehydes collected from underwear, Nonanal (healthy volunteer; 2% (w/w) aqueous trehalose solution on the body surface, control 10.93, * means no detection) | 2-nonenal in underwear, level relative to control (healthy volunteer; trehalose applied on the body surface versus water control) | formation of body odor (healthy volunteer; experiment using maltitol in place of trehalose)
OC[C@H]1O[C@@](CO)(O[C@H]2O[C@H](CO)[C@@H](O)[C@H](O)[C@H]2O)[C@@H](O)[C@@H]1O [Sucrose, sucrose] | +++ | 0.26 | 16.4 |  |  |  |  |  |  |  | 
OC[C@H]1O[C@H](O[C@H]2O[C@H](CO)[C@@H](O)[C@H](O)[C@H]2O)[C@H](O)[C@@H](O)[C@@H]1O [Trehalose, trehalose] |  | 0.00 | 2.64 | − | + | 3.72 | undetectable level | undetectable level | undetectable level | about 53% | 
OC[C@@H](O)[C@@H](O[C@H]1O[C@H](CO)[C@@H](O)[C@H](O)[C@H]1O)[C@H](O)[C@@H](O)CO [Maltitol, maltitol] |  | 0.00 | 2.77 | − | + |  |  |  |  |  | well inhibits the formation of body odor similarly as trehalose
